# Source: paper PMC6642116, “Structural and functional analyses of hepatitis B virus X protein BH3-like domain and Bcl-xL interaction” (Nature Communications, 2019)
# System: HBV in HepG2-NTCP cells
# Assay: Inhibition of HBV infection in HepG2-NTCP cells by HBx118–127
# Format: cell-based
# Settings: unrelated control peptide, MOI 200, day 8
# Experimental: We took advantage of the structural information of the HBx-aa113–135/Bcl-xL complex to develop potential HBV inhibitors. […] BH3-only mimetics, […] and ABT-737, were included as controls. […] We also used HBV-infected HepG2-NTCP cells to evaluate the inhibitory effect of the HBx-aa118–127 peptide on HBV replication, by treating the cells with the peptide at 12.5, 50, and 200 µg/ml concentrations, respectively.
# Cytoplasmic HBV viral particles were isolated and the viral DNA replication intermediates were quantified (Methods). […] The lysate was analyzed by immunoblotting using antibodies to caspase-3 (CASP3) and GAPDH (glyceraldehyde 3-phosphate dehydrogenase). c, d The HBx-aa113–135, HBx-aa118–127, or the control peptides were delivered into HepG2.2.15 cells using PEP-1 nanoparticles (Methods). The levels of HBV DNA (c) and the levels of HBV S-antigen (HBsAg) expression (d) in culture medium collected from HepG2.2.15 cells were measured (Methods). […] Data shown represent mean ± SD. Significance is indicated on the top. Not significant (ns): *P < 0.05, **P < 0.01; two-tailed unpaired t tests (n = 3 biologically independent samples). Source data are provided as a Source Data file
# The levels of HBsAg, HBeAg, and HBcAg expression were measured by chemiluminescence, using Commercial Assay Kit (Wantai, Beijing, China). Northern blot analysis of HBV RNA, Southern blot analysis of HBV DNA, and real-time PCR quantification of HBV DNA are described in the Supplementary Methods.
substance,measurement,setting,value
"SSTTSTGPCKTCTTPAQGTSMFP-K-biotin [Control, equal-length unrelated control biotin-labeled peptide]","HBV DNA, HepG2-NTCP cell",replicate 1,0.996 fold-change to control
same,"HBeAg, HepG2-NTCP cell",replicate 1,1.091 fold-change to control
same,"HBV DNA, HepG2-NTCP cell",replicate 2,0.822 fold-change to control
same,"HBeAg, HepG2-NTCP cell",replicate 2,1.003 fold-change to control
same,"HBV DNA, HepG2-NTCP cell",replicate 3,1.182 fold-change to control
same,"HBeAg, HepG2-NTCP cell",replicate 3,0.906 fold-change to control
